The values that follow come from ChEMBL document CHEMBL4138174, “Design and synthesis of novel C14-urea-tetrandrine derivatives with potent anti-cancer activity” (Eur J Med Chem, 2018).

What all share (format): functional, cell-based
One test deals with K562. The experiment in a line: Cytotoxicity against human K562 cells assessed as reduction in cell viability after 48 hrs by MTT assay.
A further test deals with HEL. The experiment in a line: Cytotoxicity against human HEL cells assessed as reduction in cell viability after 48 hrs by MTT assay. In general terms: Tetrazolium assays rely on reduction of a dye to a coloured formazan, in cell work by metabolically active cells.
The nature of test [1]: Cytotoxicity against human WM9 cells assessed as reduction in cell viability after 48 hrs by MTT assay.
The subject of a further test is MDA-MB-231. Put plainly: Cytotoxicity against human MDA-MB-231 cells assessed as reduction in cell viability after 48 hrs by MTT assay.
Another test has as its system PC-3. Put plainly: Cytotoxicity against human PC3 cells assessed as reduction in cell viability after 48 hrs by MTT assay.

For `COc1cc(NC(=O)N2c3ccccc3Sc3ccccc32)c2cc1Oc1ccc(cc1)C[C@H]1c3cc(c(OC)cc3CCN1C)Oc1c(OC)c(OC)cc3c1[C@H](C2)N(C)CC3`, the IC50 in the test on K562 (Homo sapiens, K562, 48 h) is 2.49 µM; with HEL (Homo sapiens, HEL, 48 h) it was 3.32 µM; in test [1] (Homo sapiens, WM9, 48 h), 3.21 µM; in the test with MDA-MB-231 (Homo sapiens, MDA-MB-231, 48 h), 4.14 µM; in the test with PC-3 (Homo sapiens, PC-3, 48 h), 2.95 µM.

In the case of `COc1cc(NC(=S)NC(C)C)c2cc1Oc1ccc(cc1)C[C@H]1c3cc(c(OC)cc3CCN1C)Oc1c(OC)c(OC)cc3c1[C@H](C2)N(C)CC3`, the concentration for half-maximal inhibition (IC50) in the test with K562 (Homo sapiens, K562, 48 h) came out at 3.19 µM; in the test on HEL (Homo sapiens, HEL, 48 h), 4.22 µM; in test [1] (Homo sapiens, WM9, 48 h), 3.63 µM; with MDA-MB-231 (Homo sapiens, MDA-MB-231, 48 h), 5.57 µM; in the test on PC-3 (Homo sapiens, PC-3, 48 h), 2.1 µM.

Regarding `COc1cc(NC(=O)Nc2cccc(C)c2)c2cc1Oc1ccc(cc1)C[C@H]1c3cc(c(OC)cc3CCN1C)Oc1c(OC)c(OC)cc3c1[C@H](C2)N(C)CC3`, the half-inhibitory concentration (IC50) was determined as 2.15 µM in the test on K562 (Homo sapiens, K562, 48 h); 4.86 µM in the test on HEL (Homo sapiens, HEL, 48 h); 5.07 µM in test [1] (Homo sapiens, WM9, 48 h); 10.4 µM in the test with MDA-MB-231 (Homo sapiens, MDA-MB-231, 48 h); 3.15 µM with PC-3 (Homo sapiens, PC-3, 48 h).

As for `COc1cc(NC(=O)N2CCN(S(C)(=O)=O)C2=O)c2cc1Oc1ccc(cc1)C[C@H]1c3cc(c(OC)cc3CCN1C)Oc1c(OC)c(OC)cc3c1[C@H](C2)N(C)CC3`, the 50% inhibitory concentration (IC50) in the test with K562 (Homo sapiens, K562, 48 h) was determined as 3.06 µM; in the test on HEL (Homo sapiens, HEL, 48 h) it was 5.51 µM; in test [1] (Homo sapiens, WM9, 48 h), 3.76 µM; in the test on MDA-MB-231 (Homo sapiens, MDA-MB-231, 48 h), 4.33 µM; with PC-3 (Homo sapiens, PC-3, 48 h) it was 2.17 µM.

For `COc1cc(NC(=O)Nc2cccc3ccccc23)c2cc1Oc1ccc(cc1)C[C@H]1c3cc(c(OC)cc3CCN1C)Oc1c(OC)c(OC)cc3c1[C@H](C2)N(C)CC3`, the half-maximal inhibitory concentration (IC50) in the test with K562 (Homo sapiens, K562, 48 h) was 1.97 µM; in the test on HEL (Homo sapiens, HEL, 48 h), 5.21 µM; in test [1] (Homo sapiens, WM9, 48 h), 3.93 µM; with MDA-MB-231 (Homo sapiens, MDA-MB-231, 48 h), 4.61 µM; in the test on PC-3 (Homo sapiens, PC-3, 48 h), 1.31 µM.

As to `COc1cc(NC(=O)Nc2ccc([N+](=O)[O-])cc2)c2cc1Oc1ccc(cc1)C[C@H]1c3cc(c(OC)cc3CCN1C)Oc1c(OC)c(OC)cc3c1[C@H](C2)N(C)CC3`, the IC50 in the test on K562 (Homo sapiens, K562, 48 h) turned out to be 1.84 µM; with HEL (Homo sapiens, HEL, 48 h), 6.54 µM; in test [1] (Homo sapiens, WM9, 48 h), 4.65 µM; with MDA-MB-231 (Homo sapiens, MDA-MB-231, 48 h), 5.12 µM; in the test with PC-3 (Homo sapiens, PC-3, 48 h) it was 6.85 µM.

With `CCCCNC(=O)Nc1cc(OC)c2cc1C[C@H]1c3c(cc(OC)c(OC)c3Oc3cc4c(cc3OC)CCN(C)[C@H]4Cc3ccc(cc3)O2)CCN1C` [listing 1 of 2 here], the half-maximal inhibitory concentration (IC50) was 2.77 µM in the test on K562 (k562); 2.67 µM in the test on HEL (hel); 3.66 µM in test [1]; 5.28 µM with MDA-MB-231 (mda-mb-231); 0.68 µM in the test with PC-3 (pc-3).

Take `O=c1[nH]cc(F)c(=O)[nH]1` [FLUOROURACIL]: the concentration for half-maximal inhibition (IC50) in the test with K562 (Homo sapiens, K562, 48 h) came out at 9.49 µM; with HEL (Homo sapiens, HEL, 48 h) it was 16 µM; in test [1] (Homo sapiens, WM9, 48 h) it was 15.8 µM; in the test with MDA-MB-231 (Homo sapiens, MDA-MB-231, 48 h), 17.7 µM; in the test with PC-3 (Homo sapiens, PC-3, 48 h), 19.9 µM.

On to `COc1cc(NC(=O)NC(C)(C)C)c2cc1Oc1ccc(cc1)C[C@H]1c3cc(c(OC)cc3CCN1C)Oc1c(OC)c(OC)cc3c1[C@H](C2)N(C)CC3`, for which the IC50 with K562 (Homo sapiens, K562, 48 h) worked out at 4.89 µM; in the test with HEL (Homo sapiens, HEL, 48 h), 11.9 µM; in test [1] (Homo sapiens, WM9, 48 h), 5.37 µM; in the test with MDA-MB-231 (Homo sapiens, MDA-MB-231, 48 h) it was 12.6 µM; in the test on PC-3 (Homo sapiens, PC-3, 48 h) it was 2.97 µM.

In the case of `CCCNC(=O)Nc1cc(OC)c2cc1C[C@H]1c3c(cc(OC)c(OC)c3Oc3cc4c(cc3OC)CCN(C)[C@H]4Cc3ccc(cc3)O2)CCN1C`, the 50% inhibitory concentration (IC50) in the test on K562 (Homo sapiens, K562, 48 h) worked out at 5.09 µM; in the test with HEL (Homo sapiens, HEL, 48 h), 4.79 µM; in test [1] (Homo sapiens, WM9, 48 h), 4.83 µM; in the test on MDA-MB-231 (Homo sapiens, MDA-MB-231, 48 h), 6.31 µM; in the test on PC-3 (Homo sapiens, PC-3, 48 h), 0.73 µM.

As to `COc1cc(NC(=S)Nc2ccc(C)cc2)c2cc1Oc1ccc(cc1)C[C@H]1c3cc(c(OC)cc3CCN1C)Oc1c(OC)c(OC)cc3c1[C@H](C2)N(C)CC3`, the 50% inhibitory concentration (IC50) in the test on K562 (Homo sapiens, K562, 48 h) was 2.23 µM; in the test with HEL (Homo sapiens, HEL, 48 h), 6.04 µM; in test [1] (Homo sapiens, WM9, 48 h), 5.52 µM; in the test on MDA-MB-231 (Homo sapiens, MDA-MB-231, 48 h), 3.61 µM; with PC-3 (Homo sapiens, PC-3, 48 h) it was 5.36 µM.

`CCCCNC(=O)Nc1cc(OC)c2cc1C[C@H]1c3c(cc(OC)c(OC)c3Oc3cc4c(cc3OC)CCN(C)[C@H]4Cc3ccc(cc3)O2)CCN1C` [listing 2 of 2 here]: the IC50 in the test with K562 (k562) amounted to 6.88 µM; in the test with HEL (Homo sapiens, HEL, 48 h) it was 4.53 µM; in test [1] (Homo sapiens, WM9, 48 h) it was 5.12 µM; in the test on MDA-MB-231 (Homo sapiens, MDA-MB-231, 48 h), 5.4 µM; in the test on PC-3 (Homo sapiens, PC-3, 48 h), 0.88 µM.

The term IC50 denotes the concentration that gives 50% inhibition.
